Read-outs that look alike come from different tables or passages of the source. *1 amine or outer side, *2 acyl side, *3 side chain or, on linkers, in order; H or OH if unused. Where a SMILES comes first, the peptide text is derived from it. Bridges are numbered along the chain shown (N, C = ends). [ ]: non-standard residue; d: D form. The star is where a group is joined. 2Nal = N[C@@H](Cc1ccc2ccccc2c1)C(=O)O; AEF = NCCOc1ccc(C[C@H](N)C(=O)O)cc1; X1 = O=C(Cc1ccc(CN[*:1])cc1)[*:2]; 3Pal = N[C@@H](Cc1cccnc1)C(=O)O; αMeL = CC(C)C[C@](C)(N)C(=O)O; CH2COCH2 = O=C(C[*:1])C[*:2]; Pyrrolidide = C1CCN(*)C1; Dab = NCC[C@H](N)C(=O)O; X6 = O=C(CN[*:2])[*:1]
How the values were obtained:
human IL-23R = target: T1, human IL-23R (Homo sapiens, UniProt Q5VWK5); assay: biochemical; conditions: for Emax: read-out: % displacement (hIL-23R NIuc)
T1 sequence (Q5VWK5 22-629): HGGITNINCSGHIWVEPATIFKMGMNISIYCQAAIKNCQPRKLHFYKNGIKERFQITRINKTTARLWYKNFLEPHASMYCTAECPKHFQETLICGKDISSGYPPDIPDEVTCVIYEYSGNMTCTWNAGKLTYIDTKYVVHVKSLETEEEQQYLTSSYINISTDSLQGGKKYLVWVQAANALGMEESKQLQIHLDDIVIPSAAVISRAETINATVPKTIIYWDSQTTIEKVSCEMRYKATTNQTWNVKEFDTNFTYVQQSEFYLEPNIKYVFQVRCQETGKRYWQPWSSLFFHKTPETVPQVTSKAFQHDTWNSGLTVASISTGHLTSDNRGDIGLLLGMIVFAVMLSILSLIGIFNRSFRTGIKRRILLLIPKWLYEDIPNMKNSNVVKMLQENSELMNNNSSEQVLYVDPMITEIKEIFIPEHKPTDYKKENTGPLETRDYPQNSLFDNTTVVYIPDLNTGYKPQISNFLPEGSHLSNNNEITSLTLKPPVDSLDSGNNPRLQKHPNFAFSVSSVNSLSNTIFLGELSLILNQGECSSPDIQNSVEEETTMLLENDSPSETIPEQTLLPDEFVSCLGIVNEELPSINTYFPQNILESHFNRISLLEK
Procedure, shortened: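 BRET displacement of a TAMRA-labelled reference compound from N-terminal Nanoluc-IL-23R fusion protein in membranes from stably transfected HEK293 cells. Incubation 2 h at room temperature, then Nanoluc substrate was added and the TAMRA/Nanoluc ratio read. IC50 and maximal displacement came from 4-parameter logistic fits.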

[1] = target: IL-23 mediated signalling (Homo sapiens, UniProt Q5VWK5); assay: Functional inhibition of IL-23 mediated STAT3 signalling (phospho-STAT3 MSD) in DB cells; type: cell-based; conditions: for Emax: read-out: hIL-23 (pSTAT3) antagonist % inhibition
Source text: Upon binding of IL-23, the IL-23R forms a heterodimer signalling complex together with IL-12R β1, which through the JAK2/STAT3 pathway promotes phosphorylation of STAT3 to form phospho-STAT3.
For compounds tested in this assay, the response was normalized relative to control values to calculate the IC50 and maximal inhibitory response from a concentration response curve of the compound in presence of a fixed concentration of human IL-23.
The assay procedure was as follows. […] Following preincubation of the DB cells with inhibitor for 15 min in a cell incubator (37 °C, 5% CO2), 20 µL of the prepared 3X the EC80 of hIL-23 solution was added to each well and incubated for 90 min in a cell incubator (37 °C, 5% CO2). For some wells buffer only or IL-23 only corresponding to the EC80 was added to obtain readouts needed for normalization. To terminate the assay, the plate was spun at 1000 G for 5 min to pellet cells, the supernatant removed using an 8-channel manual pipette, and then added 50 µL/well Complete Lysis Buffer from the MSD STAT3 kit (Cat# K150SVD, Mesoscale) to the cell pellet. To completely lyse cells to release phospho-STAT3 for detection, the plate was shaken for 10 min at room temperature (500 rpm) sealed with aluminium foil and placed at -80 °C for a minimum of 15 min. Detection of the phospho-STAT3 level in the cell lysate from the individual wells was determined using the MSD STAT3 kit (Cat# K150SVD, Mesoscale) and read on a Meso QuickPlex SQ 120 plate reader (Mesoscale).
For data analysis raw data counts from the Meso QuickPlex SQ 120 plate reader were normalized relative to the response by the EC80 of h1L-23 alone (no compound added) and the buffer level. Compound potency (IC50) and maximal inhibitory response (% inhibition) were estimated by computer-aided curve fitting using a 4-parameter logistic (4PL) nonlinear model. […] Table 3-2: hIL-23 (pSTAT3) antagonist IC50 and % inhibition

[2] = Table 3-2, maximal inhibitory response, DB cells, hIL-23 at EC80
[3] = Table 3-2, DB cells, hIL-23 at EC80, read-out: hIL-23 (pSTAT3) antagonist IC50

Compound	IC50 (human IL-23R) [nM]	Emax (human IL-23R) [%]	Emax [1, 2] [%]	% displacement (hIL-23R NIuc) (human IL-23R) [%]	Ki (human IL-23R) [nM]	IC50 [1, 3] [nM]	% displacement (hIL-23R NIuc) (human IL-23R; Table 3-1, maximal displacement of TAMRA-labelled peptide) [%]	hIL-23 (pSTAT3) antagonist % inhibition [1, 2] [%]	IC50 [1] [nM]
CNC(=O)[C@H](Cc1cccnc1)NC(=O)[C@H](CCN)NC(=O)[C@@H]1CCC(=O)NCCCC[C@@H]2NC(=O)CC[C@H](NC(=O)[C@H](CCC(N)=O)NC(=O)[C@H](Cc3c[nH]c4ccccc34)NC(=O)[C@H]([C@@H](C)O)NC2=O)C(=O)N[C@@H](Cc2ccc(OCCN)cc2)C(=O)N[C@@H](Cc2ccc3ccccc3c2)C(=O)N[C@@](C)(CC(C)C)C(=O)N1 [Compound 36, K(1c)(6c)^†TWQE(6c)[Y(2-aminoethoxy)][2-Nal][2-Me-Leu]E(1c)[Dab][3-(3-Pyridyl)-Ala]-[NHMe]] (KTWQE[AEF][2Nal][αMeL]E[Dab][3Pal]-NHMe; lactam 1-9, N-5)	0.29	100	97						
CNC(=O)[C@H](Cc1cccnc1)NC(=O)[C@H](CCN)NC(=O)[C@@H]1CCCCNC(=O)CC[C@@H]2NC(=O)CC[C@H](NC(=O)[C@H](CCC(N)=O)NC(=O)[C@H](Cc3c[nH]c4ccccc34)NC(=O)[C@H]([C@@H](C)O)NC2=O)C(=O)N[C@@H](Cc2ccc(OCCN)cc2)C(=O)N[C@@H](Cc2ccc3ccccc3c2)C(=O)N[C@@](C)(CC(C)C)C(=O)N1 [Compound 39, E(1c)(6c)^†TWQE(6c)[Y(2-aminoethoxy)][2-Nal][2-Me-Leu]K(1c)[Dab][3-(3-Pyridyl)-Ala]-[NHMe]] (ETWQE[AEF][2Nal][αMeL]K[Dab][3Pal]-NHMe; lactam 1-9, N-5)	0.64		99	98					
CNC(=O)[C@H](Cc1cccnc1)NC(=O)[C@H](CCN)NC(=O)[C@@H]1CCC(=O)NCC(=O)NCCCC[C@@H]2NC(=O)CC[C@H](NC(=O)[C@H](CCC(N)=O)NC(=O)[C@H](Cc3c[nH]c4ccccc34)NC2=O)C(=O)N[C@@H](Cc2ccc(OCCN)cc2)C(=O)N[C@@H](Cc2ccc3ccccc3c2)C(=O)N[C@@](C)(CC(C)C)C(=O)N1 [Compound 46, [K(G)](1c)(6c)^†WQE(6c)[Y(2-aminoethoxy)][2-Nal][2-Me-Leu]E(1c)[Dab][3-(3-Pyridyl)-Ala]-[NHMe]] (KWQE[AEF][2Nal][αMeL]E[Dab][3Pal]-NHMe; linker 1-8 via X6; lactam N-4)	7.3	104	102						
CC(=O)N[C@H]1CCSC[C@@H](C(=O)N[C@@H](Cc2ccc(OCCN)cc2)C(=O)N[C@@H](Cc2c[nH]c3ccccc23)C(=O)N[C@@](C)(CCCCN)C(=O)N[C@@H](CCC(=O)O)C(=O)N[C@@H](CC(N)=O)C(=O)NCC(N)=O)NC(=O)[C@H](CCC(N)=O)NC(=O)[C@H](Cc2c[nH]c3ccccc23)NC(=O)[C@H]([C@@H](C)O)NC(=O)[C@H](CCC(N)=O)NC1=O [Compound C, [Ac]-[Abu](16i)QTWQC(16i)[Y(2-aminoethoxy)]W[2-Me-Lys]ENG-[NH2], reference compound]	2.6		99	102	2.11	13			
CC(=O)N[C@H]1CCCCNC(=O)CC[C@@H](C(=O)N[C@@H](CCCNC(=N)N)C(N)=O)NC(=O)[C@H](CC(C)C)NC(=O)[C@H](Cc2ccc3ccccc3c2)NC(=O)[C@H](Cc2c[nH]c3ccccc23)NC(=O)[C@@H]2CSCC(=O)CSC[C@H](NC(=O)[C@H](CO)NC1=O)C(=O)N[C@@H](Cc1c[nH]c3ccccc13)C(=O)N[C@@H](CCC(N)=O)C(=O)N2 [Ref 18, [Ac]-K(1c)SC(2a)WQC(2a)W[2-Nal]LE(1c)R-[NH2], reference compound] (HELM PEPTIDE1{[ac].K.S.C.W.Q.C.W.[O=C([C@H](Cc1ccc2ccccc2c1)N[*:1])[*:2]].L.E.R.[am]}|CHEM1{[O=C(C[*:1])C[*:2]]}$PEPTIDE1,PEPTIDE1,2:R3-11:R3|PEPTIDE1,CHEM1,4:R3-1:R1|PEPTIDE1,CHEM1,7:R3-1:R2$$$V2.0)	3.5		97	103	2.85	18			
CC(C)C[C@]1(C)NC(=O)[C@H](Cc2ccc3ccccc3c2)NC(=O)[C@H](Cc2ccc(OCCN)cc2)NC(=O)[C@@H]2CSCC(=O)CSC[C@H](NC(=O)[C@H](CO)NC(=O)Cc3ccc(cc3)CNC(=O)CC[C@@H](C(=O)N[C@@H](CCCNC(=N)N)C(N)=O)NC1=O)C(=O)N[C@@H](Cc1c[nH]c3ccccc13)C(=O)N[C@@H](CCC(N)=O)C(=O)N2 [Ref 52, [4-Aminomethyl-phenylacetyl](1c)*SC(2a)WQC(2a)[Y(2-aminoethoxy)][2-Nal][2-Me-Leu]E(1c)R-[NH2], reference compound] ([X1]SCWQC[AEF][2Nal][αMeL]ER-NH2; linker 3-6 via CH2COCH2; lactam N-10)	0.058		103	100	0.0475	7.8			
CC(C)C[C@]1(C)NC(=O)[C@H](Cc2ccc3ccccc3c2)NC(=O)[C@H](Cc2ccc(OCCN)cc2)NC(=O)[C@@H]2CCNC(=O)CC[C@H](NC(=O)[C@H](CO)NC(=O)Cc3ccc(cc3)CNC(=O)CC[C@@H](C(=O)N[C@@H](CCN)C(N)=O)NC1=O)C(=O)N[C@@H](Cc1c[nH]c3ccccc13)C(=O)N[C@@H](CCC(N)=O)C(=O)N2 [Ref 125, [4-Aminomethyl-phenylacetyl](1c)*SE(2c)WQ[Dab](2c)[Y(2-aminoethoxy)][2-Nal][2-Me-Leu]E(1c)[Dab]-[NH2], reference compound]	0.73		98	101	0.599	21			
CC(C)C[C@]1(C)NC(=O)[C@H](Cc2ccc3ccccc3c2)NC(=O)[C@H](Cc2ccc(OCCN)cc2)NC(=O)[C@@H]2CCNC(=O)CC[C@H](NC(=O)[C@H](CO)NC(=O)Cc3ccc(cc3)CNC(=O)CC[C@@H](C(=O)N[C@@H](CCN)C(N)=O)NC1=O)C(=O)N[C@@H](Cc1c[nH]c3ccccc13)C(=O)N[C@@H](CCC(=O)N1CCCC1)C(=O)N2 [Ref 146, [4-Aminomethyl-phenylacetyl](1c)*SE(2c)W[Q(pyrrolidin)][Dab](2c)[Y(2-aminoethoxy)][2-Nal][2-Me-Leu]E(1c)[Dab]-[NH2], reference compound] ([X1]SEWE(Pyrrolidide)[Dab][AEF][2Nal][αMeL]E[Dab]-NH2; lactam 3-6, N-10)							105	98	
CC(=O)N[C@H]1CCCCNC(=O)CC[C@@H](C(=O)N[C@@H](CCN)C(=O)N[C@@H](Cc2cccnc2)C(N)=O)NC(=O)[C@](C)(CC(C)C)NC(=O)[C@H](Cc2ccc3ccccc3c2)NC(=O)[C@H](Cc2ccc(OCCN)cc2)NC(=O)[C@@H]2CSCC(=O)CSC[C@H](NC(=O)[C@H]([C@@H](C)O)NC1=O)C(=O)N[C@@H](Cc1c[nH]c3ccccc13)C(=O)N[C@@H](CCC(N)=O)C(=O)N2 [Ref 155, [Ac]-K(1c)TC(2a)WQC(2a)[Y(2-aminoethoxy)][2-Nal][2-Me-Leu]E(1c)[Dab][3-(3-Pyridyl)-Ala]-[NH2], reference compound] (Ac-KTCWQC[AEF][2Nal][αMeL]E[Dab][3Pal]-NH2; lactam 1-10; linker 3-6 via CH2COCH2)	0.0099		100	97	0.00805				0.031
